Key:
[1] = xn = mol fraction of the nth substance listed; settings: 298.15 K, 101.33 kPa, Liquid
[2] = excess molar enthalpy (molar enthalpy of mixing); xn = mol fraction of the nth substance listed; settings: 298.15 K, 101.33 kPa, Liquid

ClCCCCCl [1,4-dichlorobutane] + CCOC(C)=O
Settings | excess molar enthalpy [kcal/mol] | mass density [kg/m3]
[1], x2 = 0.0693 | – | 1118.08
[1], x2 = 0.1314 | – | 1104.46
[1], x2 = 0.1955 | – | 1090.4
[1], x2 = 0.2579 | – | 1076.44
[1], x2 = 0.3205 | – | 1062.24
[1], x2 = 0.3812 | – | 1048.26
[1], x2 = 0.442 | – | 1034.12
[1], x2 = 0.5019 | – | 1019.95
[1], x2 = 0.5602 | – | 1006.01
[1], x2 = 0.6172 | – | 992.21
[1], x2 = 0.6757 | – | 977.84
[1], x2 = 0.7842 | – | 950.68
[1], x2 = 0.8386 | – | 936.74
[1], x2 = 0.8929 | – | 922.7
[1], x2 = 0.9453 | – | 908.9
[2], x2 = 0.0692 | -0.00201 | –
[2], x2 = 0.1414 | -0.00473 | –
[2], x2 = 0.2133 | -0.00848 | –
[2], x2 = 0.2818 | -0.0131 | –
[2], x2 = 0.347 | -0.0181 | –
[2], x2 = 0.4035 | -0.0231 | –
[2], x2 = 0.4514 | -0.0274 | –
[2], x2 = 0.4919 | -0.0309 | –
[2], x2 = 0.5264 | -0.0339 | –
[2], x2 = 0.5571 | -0.0363 | –
[2], x2 = 0.5836 | -0.0386 | –
[2], x2 = 0.6072 | -0.0403 | –
[2], x2 = 0.6278 | -0.0414 | –
[2], x2 = 0.6525 | -0.0423 | –
[2], x2 = 0.7106 | -0.0388 | –
[2], x2 = 0.7719 | -0.0344 | –
[2], x2 = 0.8337 | -0.0275 | –
[2], x2 = 0.8915 | -0.0193 | –
[2], x2 = 0.9475 | -0.00997 | –

CCCC(=O)OCC [ethyl butanoate] + ClCCCl
Settings | excess molar enthalpy [kcal/mol] | mass density [kg/m3]
[1], x1 = 0.0378 | – | 1221.95
[1], x1 = 0.075 | – | 1199.86
[1], x1 = 0.1149 | – | 1177.55
[1], x1 = 0.1568 | – | 1155.49
[1], x1 = 0.198 | – | 1134.78
[1], x1 = 0.2425 | – | 1113.63
[1], x1 = 0.2957 | – | 1089.91
[1], x1 = 0.3476 | – | 1068.19
[1], x1 = 0.4019 | – | 1046.72
[1], x1 = 0.46 | – | 1025.2
[1], x1 = 0.5234 | – | 1003.08
[1], x1 = 0.5887 | – | 981.85
[1], x1 = 0.6583 | – | 960.62
[1], x1 = 0.7338 | – | 939.07
[1], x1 = 0.8138 | – | 917.85
[1], x1 = 0.9027 | – | 895.87
[2], x1 = 0.0372 | -0.00574 | –
[2], x1 = 0.0865 | -0.016 | –
[2], x1 = 0.1386 | -0.0291 | –
[2], x1 = 0.1921 | -0.0436 | –
[2], x1 = 0.2431 | -0.0589 | –
[2], x1 = 0.2939 | -0.0737 | –
[2], x1 = 0.3419 | -0.0863 | –
[2], x1 = 0.388 | -0.0979 | –
[2], x1 = 0.4274 | -0.105 | –
[2], x1 = 0.4838 | -0.109 | –
[2], x1 = 0.5489 | -0.11 | –
[2], x1 = 0.5825 | -0.108 | –
[2], x1 = 0.6236 | -0.104 | –
[2], x1 = 0.7068 | -0.0906 | –
[2], x1 = 0.7989 | -0.0682 | –
[2], x1 = 0.8971 | -0.0405 | –
[2], x1 = 0.9325 | -0.0292 | –

ClCCCCl [1,3-dichloropropane] + CCOC=O
[1]
Settings | mass density [kg/m3]
x2 = 0.076 | 1161.06
x2 = 0.1432 | 1145.36
x2 = 0.2073 | 1130.02
x2 = 0.2696 | 1114.94
x2 = 0.3338 | 1099.05
x2 = 0.394 | 1083.9
x2 = 0.4558 | 1068.05
x2 = 0.5152 | 1052.57
x2 = 0.5731 | 1037.18
x2 = 0.6297 | 1021.91
x2 = 0.6862 | 1006.34
x2 = 0.7413 | 990.94
x2 = 0.794 | 975.98
x2 = 0.8475 | 960.54
x2 = 0.8994 | 945.31
x2 = 0.9494 | 930.3

ClCCCCCl [1,4-dichlorobutane] + CCCC(=O)OCC
Settings | excess molar enthalpy, [2] [kcal/mol] | mass density, [1] [kg/m3]
x2 = 0.0516 | -0.00502 | 1117.97
x2 = 0.1009 | – | 1103.15
x2 = 0.1108 | -0.0127 | –
x2 = 0.1531 | – | 1087.78
x2 = 0.172 | -0.0208 | –
x2 = 0.2042 | – | 1072.99
x2 = 0.2328 | -0.0297 | –
x2 = 0.2583 | – | 1057.63
x2 = 0.2891 | -0.0397 | –
x2 = 0.3128 | – | 1042.49
x2 = 0.3455 | -0.0467 | –
x2 = 0.3701 | – | 1026.87
x2 = 0.3976 | -0.053 | –
x2 = 0.4267 | – | 1011.74
x2 = 0.4477 | -0.0578 | –
x2 = 0.4757 | -0.0598 | –
x2 = 0.5265 | -0.0616 | –
x2 = 0.5437 | – | 981.4
x2 = 0.5821 | -0.0614 | –
x2 = 0.6058 | – | 965.8
x2 = 0.6443 | -0.0597 | –
x2 = 0.6681 | – | 950.44
x2 = 0.7111 | -0.0554 | –
x2 = 0.7293 | – | 935.66
x2 = 0.7821 | -0.0468 | –
x2 = 0.8567 | -0.0343 | –
x2 = 0.8601 | – | 905.05
x2 = 0.9259 | – | 890.1
x2 = 0.9323 | -0.0189 | –
